Experimental data taken from ChEMBL document CHEMBL4393657, “Tetrazole hybrids and their antifungal activities” (2019).
In brackets after ≈: the same amount, converted by molar mass.

How the values were obtained:
Assay type in all cases: functional
Candida albicans [1] = assay: In vivo antifungal activity against Candida albicans TA infected in CDF-1 mouse dosed orally assessed as survival of mouse; details: po
Candida albicans [2] = assay: Antifungal activity against Candida albicans TA
Aspergillus flavus = assay: Antifungal activity against Aspergillus flavus assessed as reduction in fungal cell growth incubated for 24 and 72 hrs by cup plate method
Fusarium oxysporum = assay: Antifungal activity against Fusarium oxysporum assessed as reduction in fungal cell growth incubated for 24 and 72 hrs by cup plate method
Candida albicans [3] = assay: Antifungal activity against Candida albicans assessed as reduction in fungal cell growth incubated for 24 and 72 hrs by cup plate method
Candida albicans [4] = assay: Antifungal activity against Candida albicans assessed as inhibition zone at 250 ug/ml; details: read-out: IZ
Aspergillus niger [5] = assay: Antifungal activity against Aspergillus niger assessed as inhibition zone at 250 ug/ml; details: read-out: IZ
Aspergillus niger [6] = assay: Antifungal activity against Aspergillus niger assessed as reduction in fungal cell growth incubated for 48 hrs by broth microdilution susceptibility method
Candida albicans [7] = assay: Antifungal activity against Candida albicans assessed as reduction in fungal cell growth incubated for 48 hrs by broth microdilution susceptibility method
Candida albicans [8] = assay: Antifungal activity against Candida albicans NCCS 3471 assessed as inhibition zone at 50 ug/ml incubated for 3 to 4 days by disk diffusion method; details: read-out: IZ
Aspergillus fumigatus = assay: Antifungal activity against Aspergillus fumigatus NCIM 902 assessed as inhibition zone at 50 ug/ml incubated for 3 to 4 days by disk diffusion method; details: read-out: IZ

Structure (SMILES) | MIC (Aspergillus flavus) [µg/mL] | MIC (Fusarium oxysporum) [µg/mL] | MIC (Candida albicans [3]) [µg/mL] | other results
C[C@@H](n1cnnn1)[C@](O)(Cn1cncn1)c1ccccc1F | – | – | – | ED50 (Candida albicans [1]): 0.18 to 1.54 mg/kg; MIC (Candida albicans [2]): 12.5 to 100 µg/mL (≈ 41.2 to 330 µM)
Cc1ccc2cc(/C=C3\SC(=S)N(CC(=O)O)C3=O)c3nnnn3c2c1 | 25 to 50 (≈ 64.9 to 130 µM) | 25 to 50 (≈ 64.9 to 130 µM) | 25 to 50 (≈ 64.9 to 130 µM) | –
CCOC(=O)C(C#N)C(c1cc2cc(C)ccc2n2nnnc12)P(=O)(OCC)OCC (stereo not given) | 10 to 25 (≈ 22.5 to 56.1 µM) | 10 to 25 (≈ 22.5 to 56.1 µM) | 10 to 25 (≈ 22.5 to 56.1 µM) | –
O=[N+]([O-])c1cccc(-c2nnnn2-c2nc3ccccc3s2)c1 | – | – | – | zone of inhibition at 250 µg/mL (Candida albicans [4]): 13 to 23 mm; zone of inhibition at 250 µg/mL (Aspergillus niger [5]): 13 to 23 mm
C[C@@H](n1nnn(-c2ccc(F)cc2)c1=O)[C@](O)(Cn1cncn1)c1ccccc1 | – | – | – | ED50 (Candida albicans [1]): 0.71 to 2 mg/kg
COc1ccc(-c2nn[se]c2-n2nnc(-c3ccc(C)cc3)n2)cc1 | – | – | – | MIC (Aspergillus niger [6]): 100 to 400 µg/mL (≈ 252 to 1010 µM); MIC (Candida albicans [7]): 100 to 400 µg/mL (≈ 252 to 1010 µM)
S=C1N=C(c2ccc(Br)cc2)CC(c2cc3ccccc3n3nnnc23)N1 (stereo not given) | – | – | – | MIC (Candida albicans [7]): ≥ 100 µg/mL
COc1ccccc1-n1nnnc1-c1cccnc1 | – | – | – | zone of inhibition at 50 µg/mL (Candida albicans [8]): 10 to 19 mm; zone of inhibition at 50 µg/mL (Aspergillus fumigatus): 10 to 19 mm
COc1cccc2c1cc(C1CC(c3cc(Br)ccc3O)=NN1)c1nnnn12 (stereo not given) | 25 to 100 (≈ 56.9 to 228 µM) | 25 to 100 (≈ 56.9 to 228 µM) | 25 to 100 (≈ 56.9 to 228 µM) | –
COc1ccc2c(c1)cc(C1CC(c3cc(Br)ccc3O)=NN1)c1nnnn12 (stereo not given) | 25 to 100 (≈ 56.9 to 228 µM) | 25 to 100 (≈ 56.9 to 228 µM) | 25 to 100 (≈ 56.9 to 228 µM) | –
O=C1CC(=O)N(c2ccccc2)C(=S)N1/N=C/c1cc2ccccc2n2nnnc12 | – | – | – | MIC (Candida albicans [7]): ≥ 100 µg/mL
Clc1ccc(-c2nnn(-c3[se]nnc3-c3ccc(Cl)cc3)n2)cc1 | – | – | – | MIC (Aspergillus niger [6]): 6.25 µg/mL (≈ 14.8 µM); MIC (Candida albicans [7]): 6.25 µg/mL (≈ 14.8 µM)
C[C@@H](n1ncnn1)[C@](O)(Cn1cncn1)c1ccc(F)cc1F | – | – | – | MIC (Candida albicans [2]): 100 µg/mL (≈ 311 µM)
CN(C)c1ccc(/C=C2/C(=O)N(/N=C/c3cc4ccccc4n4nnnc34)C(=S)N(c3ccccc3)C2=O)cc1 | – | – | – | MIC (Candida albicans [7]): ≥ 100 µg/mL
CN(C)c1ccc(/C=C2/C(=O)N(/N=C/c3cc4ccccc4n4nnnc34)C(=S)N(c3ccc(Cl)cc3)C2=O)cc1 | – | – | – | MIC (Candida albicans [7]): ≥ 100 µg/mL
COc1ccc2c(c1)cc(/C=C/C(=O)c1cc(Br)ccc1O)c1nnnn12 | 25 to 100 (≈ 58.8 to 235 µM) | 25 to 100 (≈ 58.8 to 235 µM) | 25 to 100 (≈ 58.8 to 235 µM) | –
O=C(/C=C/c1cc2ccccc2n2nnnc12)c1cc(Br)ccc1O | 25 to 100 (≈ 63.3 to 253 µM) | 25 to 100 (≈ 63.3 to 253 µM) | 25 to 100 (≈ 63.3 to 253 µM) | –
O=[N+]([O-])c1ccc(-c2nnnn2-c2nc3ccccc3s2)cc1 | – | – | – | zone of inhibition at 250 µg/mL (Candida albicans [4]): 13 to 23 mm; zone of inhibition at 250 µg/mL (Aspergillus niger [5]): 13 to 23 mm
Cc1ccc2cc(/C=C/C(=O)c3cc(Br)ccc3O)c3nnnn3c2c1 | 25 to 100 (≈ 61.1 to 244 µM) | 25 to 100 (≈ 61.1 to 244 µM) | 25 to 100 (≈ 61.1 to 244 µM) | –
C[C@@H](n1ncnn1)[C@](O)(Cn1cncn1)c1ccc(F)cc1 | – | – | – | MIC (Candida albicans [2]): 100 µg/mL (≈ 330 µM)

Structure (SMILES) | MIC (Aspergillus flavus) [µg/mL] | MIC (Fusarium oxysporum) [µg/mL] | MIC (Candida albicans [3]) [µg/mL] | other results
C[C@@H](n1nnn(-c2ccc(C(F)(F)F)cc2)c1=O)[C@](O)(Cn1cncn1)c1ccccc1 | – | – | – | ED50 (Candida albicans [1]): 0.71 to 2 mg/kg
C[C@@H](n1nnn(-c2ccc(OC(F)(F)C(F)F)cc2)c1=O)[C@](O)(Cn1cncn1)c1ccccc1 | – | – | – | ED50 (Candida albicans [1]): 0.71 to 2 mg/kg
Clc1ccc(-c2nn[se]c2-n2nnc(-c3ccccc3Cl)n2)cc1 | – | – | – | MIC (Aspergillus niger [6]): 6.25 µg/mL (≈ 14.8 µM); MIC (Candida albicans [7]): 6.25 µg/mL (≈ 14.8 µM)
Oc1ccc(-c2nnnn2-c2nc3ccccc3s2)cc1O | – | – | – | zone of inhibition at 250 µg/mL (Candida albicans [4]): 13 to 23 mm; zone of inhibition at 250 µg/mL (Aspergillus niger [5]): 13 to 23 mm
Clc1ccc(-c2nn[se]c2-n2nnc(-c3ccccc3)n2)cc1 | – | – | – | MIC (Aspergillus niger [6]): 100 to 400 µg/mL (≈ 258 to 1030 µM); MIC (Candida albicans [7]): 100 to 400 µg/mL (≈ 258 to 1030 µM)
O=[N+]([O-])c1ccccc1-n1nnnc1-c1cccnc1 | – | – | – | zone of inhibition at 50 µg/mL (Candida albicans [8]): 10 to 19 mm; zone of inhibition at 50 µg/mL (Aspergillus fumigatus): 10 to 19 mm
Cc1ccc2c(c1)cc(/C=C/C(=O)c1cc(Br)ccc1O)c1nnnn12 | 25 to 100 (≈ 61.1 to 244 µM) | 25 to 100 (≈ 61.1 to 244 µM) | 25 to 100 (≈ 61.1 to 244 µM) | –
O=[N+]([O-])c1ccc(-n2nnnc2-c2cccnc2)cc1 | – | – | – | zone of inhibition at 50 µg/mL (Candida albicans [8]): 10 to 19 mm; zone of inhibition at 50 µg/mL (Aspergillus fumigatus): 10 to 19 mm
Cc1cccc2c1cc(/C=C/C(=O)c1cc(Br)ccc1O)c1nnnn12 | 25 to 100 (≈ 61.1 to 244 µM) | 25 to 100 (≈ 61.1 to 244 µM) | 25 to 100 (≈ 61.1 to 244 µM) | –
CCOC(=O)C(C#N)C(c1cc2cc(OC)ccc2n2nnnc12)P(=O)(OCC)OCC (stereo not given) | 10 to 25 (≈ 21.7 to 54.2 µM) | 10 to 25 (≈ 21.7 to 54.2 µM) | 10 to 25 (≈ 21.7 to 54.2 µM) | –
COc1ccc2cc(C3CC(c4cc(Br)ccc4O)=NN3)c3nnnn3c2c1 (stereo not given) | 25 to 100 (≈ 56.9 to 228 µM) | 25 to 100 (≈ 56.9 to 228 µM) | 25 to 100 (≈ 56.9 to 228 µM) | –
C[C@@H](n1nnn(-c2ccc(OCC(F)(F)C(F)(F)F)cc2)c1=O)[C@](O)(Cn1cncn1)c1ccccc1 | – | – | – | ED50 (Candida albicans [1]): 0.71 to 2 mg/kg
COc1ccc(-c2nn[se]c2-n2nnc(-c3ccc(Cl)cc3)n2)cc1 | – | – | – | MIC (Aspergillus niger [6]): 100 to 400 µg/mL (≈ 239 to 958 µM); MIC (Candida albicans [7]): 100 to 400 µg/mL (≈ 239 to 958 µM)
c1ccc(-n2nnnc2-c2cccnc2)cc1 | – | – | – | zone of inhibition at 50 µg/mL (Candida albicans [8]): 10 to 19 mm; zone of inhibition at 50 µg/mL (Aspergillus fumigatus): 10 to 19 mm
Cc1ccc(N2C(=O)CC(=O)N(/N=C/c3cc4ccccc4n4nnnc34)C2=S)cc1 | – | – | – | MIC (Candida albicans [7]): ≥ 100 µg/mL
C[C@@H](n1ncnn1)[C@](O)(Cn1cncn1)c1ccc(Cl)cc1 | – | – | – | MIC (Candida albicans [2]): 100 µg/mL (≈ 313 µM)
Cc1cccc2c1cc(C1CC(c3cc(Br)ccc3O)=NN1)c1nnnn12 (stereo not given) | 25 to 100 (≈ 59.1 to 236 µM) | 25 to 100 (≈ 59.1 to 236 µM) | 25 to 100 (≈ 59.1 to 236 µM) | –
COc1ccc2cc(/C=C/C(=O)c3cc(Br)ccc3O)c3nnnn3c2c1 | 25 to 100 (≈ 58.8 to 235 µM) | 25 to 100 (≈ 58.8 to 235 µM) | 25 to 100 (≈ 58.8 to 235 µM) | –
CCOC(=O)C(C#N)C(c1cc2c(OC)cccc2n2nnnc12)P(=O)(OCC)OCC (stereo not given) | 10 (≈ 21.7 µM) | 10 to 25 (≈ 21.7 to 54.2 µM) | 10 (≈ 21.7 µM) | –
